Test results published in ChEMBL document CHEMBL4311935, “Synthesis and antitumor activity of fluorouracil - oleanolic acid/ursolic acid/glycyrrhetinic acid conjugates” (Medchemcomm, 2019).

What was measured:
L02 = test: Cytotoxicity against human LO2 cells assessed as cell growth inhibition after 48 hrs by MTT assay; format: cell-based; settings: L02, 48 h
K562 = test: Cytotoxicity against human K562 cells assessed as cell growth inhibition after 48 hrs by MTT assay; format: functional, cell-based; settings: K562, 48 h
NCI/ADR-RES = test: Cytotoxicity against human MCF7/ADR cells assessed as cell growth inhibition after 48 hrs by MTT assay; format: functional, cell-based
A549/TR = test: Cytotoxicity against human A549/T cells assessed as cell growth inhibition after 48 hrs by MTT assay; format: functional, cell-based
Bel-7402 = test: Cytotoxicity against human Bel7402 cells assessed as cell growth inhibition after 48 hrs by MTT assay; format: functional, cell-based; settings: Bel-7402, 48 h
Bel7402/5-FU = test: Cytotoxicity against human Bel7402/5-FU cells assessed as cell growth inhibition after 48 hrs by MTT assay; format: functional, cell-based
K562/Adr = test: Cytotoxicity against human K562/ADR cells assessed as cell growth inhibition after 48 hrs by MTT assay; format: functional, cell-based
MCF7 = test: Cytotoxicity against human MCF7 cells assessed as cell growth inhibition after 48 hrs by MTT assay; format: functional, cell-based; settings: MCF7, 48 h
A549 = test: Cytotoxicity against human A549 cells assessed as cell growth inhibition after 48 hrs by MTT assay; format: functional, cell-based; settings: A549, 48 h

Q: For `CC1(C)CC[C@]2(C(=O)O)CC[C@]3(C)C(=CC[C@@H]4[C@@]5(C)CC[C@H](O)C(C)(C)[C@@H]5CC[C@]43C)[C@@H]2C1` [OLEANOLIC_ACID], which IC50 (L02) is on record?
A: > 200 µM

Q: What about the IC50 (K562) of the same compound?
A: > 200 µM

Q: And the IC50 (NCI/ADR-RES)?
A: > 200 µM

Q: And the IC50 (A549/TR)?
A: > 200 µM

Q: And the IC50 (Bel-7402)?
A: 59.9 µM

Q: And the IC50 (Bel7402/5-FU)?
A: > 200 µM

Q: What about the IC50 (K562/Adr) of the same compound?
A: > 200 µM

Q: What about the IC50 (MCF7) of the same compound?
A: > 200 µM

Q: What about the IC50 (A549) of the same compound?
A: 41.6 µM

Q: What does the source list for `CC1(C)[C@@H](O)CC[C@]2(C)[C@H]3C(=O)C=C4[C@@H]5C[C@@](C)(C(=O)OCCCCCCn6cc(F)c(=O)n(CCCCCCOC(=O)[C@@]7(C)CC[C@]8(C)CC[C@]9(C)C(=CC(=O)[C@@H]%10[C@@]%11(C)CC[C@H](O)C(C)(C)[C@@H]%11CC[C@]%109C)[C@@H]8C7)c6=O)CC[C@]5(C)CC[C@@]4(C)[C@]3(C)CC[C@@H]12`?
A: IC50 (L02): > 200 µM; IC50 (K562): > 200 µM; IC50 (Bel-7402): > 200 µM; IC50 (MCF7): > 200 µM; IC50 (A549): > 200 µM

Q: Which results are given for `CC1(C)[C@@H](O)CC[C@]2(C)[C@H]3C(=O)C=C4[C@@H]5C[C@@](C)(C(=O)OCCCCCCCCn6cc(F)c(=O)n(CCCCCCCCOC(=O)[C@@]7(C)CC[C@]8(C)CC[C@]9(C)C(=CC(=O)[C@@H]%10[C@@]%11(C)CC[C@H](O)C(C)(C)[C@@H]%11CC[C@]%109C)[C@@H]8C7)c6=O)CC[C@]5(C)CC[C@@]4(C)[C@]3(C)CC[C@@H]12`?
A: IC50 (L02): > 200 µM; IC50 (K562): > 200 µM; IC50 (Bel-7402): > 200 µM; IC50 (MCF7): > 200 µM; IC50 (A549): > 200 µM

Q: For `CC1(C)CC[C@]2(C(=O)OCCCCCCn3cc(F)c(=O)[nH]c3=O)CC[C@]3(C)C(=CC[C@@H]4[C@@]5(C)CC[C@H](O)C(C)(C)[C@@H]5CC[C@]43C)[C@@H]2C1`, which IC50 (L02) is on record?
A: 46.6 µM

Q: And the IC50 (K562)?
A: 14.9 µM

Q: And the IC50 (Bel-7402)?
A: 25.2 µM

Q: What about the IC50 (MCF7) of the same compound?
A: 24.3 µM

Q: What about the IC50 (A549) of the same compound?
A: 23.4 µM

Q: Which results are given for `C[C@H]1[C@H](C)CC[C@]2(C(=O)OCCCCCCn3cc(F)c(=O)n(CCCCCCOC(=O)[C@@]45CC[C@]6(C)C(=CC[C@@H]7[C@@]8(C)CC[C@H](O)C(C)(C)[C@@H]8CC[C@]76C)[C@@H]4C[C@@H](C)[C@H](C)C5)c3=O)CC[C@]3(C)C(=CC[C@@H]4[C@@]5(C)CC[C@H](O)C(C)(C)[C@@H]5CC[C@]43C)[C@H]12`?
A: IC50 (L02): > 200 µM; IC50 (K562): > 200 µM; IC50 (Bel-7402): > 200 µM; IC50 (MCF7): > 200 µM; IC50 (A549): > 200 µM

Q: How did the IC50 (L02) turn out when `CC1(C)[C@@H](O)CC[C@]2(C)[C@H]3C(=O)C=C4[C@@H]5C[C@@](C)(C(=O)OCCCCCCn6cc(F)c(=O)[nH]c6=O)CC[C@]5(C)CC[C@@]4(C)[C@]3(C)CC[C@@H]12` was run?
A: 73.2 µM

Q: What about the IC50 (K562) of the same compound?
A: 35.1 µM

Q: What about the IC50 (Bel-7402) of the same compound?
A: 40.9 µM

Q: What about the IC50 (MCF7) of the same compound?
A: 50.3 µM

Q: What about the IC50 (A549) of the same compound?
A: 49.4 µM

Q: Which results are given for `C[C@H]1[C@H](C)CC[C@]2(C(=O)OCCCCCCCCn3cc(F)c(=O)n(CCCCCCCCOC(=O)[C@@]45CC[C@]6(C)C(=CC[C@@H]7[C@@]8(C)CC[C@H](O)C(C)(C)[C@@H]8CC[C@]76C)[C@@H]4C[C@@H](C)[C@H](C)C5)c3=O)CC[C@]3(C)C(=CC[C@@H]4[C@@]5(C)CC[C@H](O)C(C)(C)[C@@H]5CC[C@]43C)[C@H]12`?
A: IC50 (L02): > 200 µM; IC50 (K562): > 200 µM; IC50 (Bel-7402): > 200 µM; IC50 (MCF7): > 200 µM; IC50 (A549): > 200 µM

Q: Which results are given for `CC1(C)CC[C@]2(C(=O)OCCCCCCn3cc(F)c(=O)n(CCCCCCOC(=O)[C@]45CCC(C)(C)C[C@H]4C4=CC[C@@H]6[C@@]7(C)CC[C@H](O)C(C)(C)[C@@H]7CC[C@@]6(C)[C@]4(C)CC5)c3=O)CC[C@]3(C)C(=CC[C@@H]4[C@@]5(C)CC[C@H](O)C(C)(C)[C@@H]5CC[C@]43C)[C@@H]2C1`?
A: IC50 (L02): > 200 µM; IC50 (K562): > 200 µM; IC50 (Bel-7402): > 200 µM; IC50 (MCF7): > 200 µM; IC50 (A549): > 200 µM

Q: Which results are given for `CC1(C)CC[C@]2(C(=O)OCCCCCCCCn3cc(F)c(=O)[nH]c3=O)CC[C@]3(C)C(=CC[C@@H]4[C@@]5(C)CC[C@H](O)C(C)(C)[C@@H]5CC[C@]43C)[C@@H]2C1`?
A: IC50 (L02): > 200 µM; IC50 (K562): 23 µM; IC50 (NCI/ADR-RES): 166 µM; IC50 (A549/TR): 43.1 µM; IC50 (Bel-7402): 43.8 µM; IC50 (Bel7402/5-FU): 31.4 µM; IC50 (K562/Adr): > 200 µM; IC50 (MCF7): 53.6 µM; IC50 (A549): 50.5 µM

Q: What does the source list for `O=c1[nH]cc(F)c(=O)[nH]1` [FLUOROURACIL]?
A: IC50 (L02): > 200 µM; IC50 (K562): 41.7 µM; IC50 (NCI/ADR-RES): 54.7 µM; IC50 (A549/TR): 84.3 µM; IC50 (Bel-7402): 53.3 µM; IC50 (Bel7402/5-FU): 38.2 µM; IC50 (K562/Adr): 31.9 µM; IC50 (MCF7): 52.1 µM; IC50 (A549): 50.4 µM

Q: Which IC50 (L02) does the source give for `CC1(C)CC[C@]2(C(=O)OCCCCCCCCn3cc(F)c(=O)n(CCCCCCCCOC(=O)[C@]45CCC(C)(C)C[C@H]4C4=CC[C@@H]6[C@@]7(C)CC[C@H](O)C(C)(C)[C@@H]7CC[C@@]6(C)[C@]4(C)CC5)c3=O)CC[C@]3(C)C(=CC[C@@H]4[C@@]5(C)CC[C@H](O)C(C)(C)[C@@H]5CC[C@]43C)[C@@H]2C1` here?
A: > 200 µM

Q: And the IC50 (K562)?
A: > 200 µM

Q: What about the IC50 (Bel-7402) of the same compound?
A: > 200 µM

Q: And the IC50 (MCF7)?
A: > 200 µM

Q: What about the IC50 (A549) of the same compound?
A: > 200 µM

Q: For `C[C@H]1[C@H](C)CC[C@]2(C(=O)OCCCCCCCCn3cc(F)c(=O)[nH]c3=O)CC[C@]3(C)C(=CC[C@@H]4[C@@]5(C)CC[C@H](O)C(C)(C)[C@@H]5CC[C@]43C)[C@H]12`, which IC50 (L02) is on record?
A: > 200 µM

Q: And the IC50 (K562)?
A: > 200 µM

Q: And the IC50 (Bel-7402)?
A: > 200 µM

Q: And the IC50 (MCF7)?
A: > 200 µM

Q: And the IC50 (A549)?
A: > 200 µM

Q: With `CC1(C)[C@@H](O)CC[C@]2(C)[C@H]3C(=O)C=C4[C@@H]5C[C@@](C)(C(=O)O)CC[C@]5(C)CC[C@@]4(C)[C@]3(C)CC[C@@H]12` [ENOXOLONE] as the compound, how does the IC50 (L02) read?
A: > 200 µM

Q: What about the IC50 (K562) of the same compound?
A: > 200 µM

Q: What about the IC50 (NCI/ADR-RES) of the same compound?
A: 74.5 µM

Q: What about the IC50 (A549/TR) of the same compound?
A: 99.9 µM

Q: What about the IC50 (Bel-7402) of the same compound?
A: > 200 µM

Q: What about the IC50 (Bel7402/5-FU) of the same compound?
A: 69.8 µM

Q: What about the IC50 (K562/Adr) of the same compound?
A: 86.5 µM

Q: What about the IC50 (MCF7) of the same compound?
A: > 200 µM

Q: What about the IC50 (A549) of the same compound?
A: > 200 µM

Q: Which results are given for `C[C@H]1[C@H](C)CC[C@]2(C(=O)OCCCCCCn3cc(F)c(=O)[nH]c3=O)CC[C@]3(C)C(=CC[C@@H]4[C@@]5(C)CC[C@H](O)C(C)(C)[C@@H]5CC[C@]43C)[C@H]12`?
A: IC50 (L02): 22.2 µM; IC50 (K562): 14.9 µM; IC50 (Bel-7402): 32.5 µM; IC50 (MCF7): 18.9 µM; IC50 (A549): 17.4 µM

Q: Which results are given for `C[C@H]1[C@H](C)CC[C@]2(C(=O)O)CC[C@]3(C)C(=CC[C@@H]4[C@@]5(C)CC[C@H](O)C(C)(C)[C@@H]5CC[C@]43C)[C@H]12` [URSOLIC ACID]?
A: IC50 (L02): 58.4 µM; IC50 (K562): 41 µM; IC50 (Bel-7402): 64.6 µM; IC50 (K562/Adr): 38.1 µM; IC50 (MCF7): 70.1 µM; IC50 (A549): 77.7 µM
